Assays:
Assay type in all cases: physicochemical
[1] = Solubility in various media (equilibration on a shaking bed for 24 hours, HPLC); conditions: for Solubility, Actual Conc / Solubility in 0.05M Buffers, Actual Conc: 24 h equilibration; for Solubility, Total Conc: ambient, 24 h
Protocol: (§1) Solubility: The solubility of form IA in various media was determined at ambient conditions by equilibrating aliquots of the drug powder with the solvents on a shaking bed for 24 hours. The samples were centrifuged, the saturated solutions of the drug were then separated and analyzed by HPLC. The sample volume was 100 μL and the target concentration was 10 mg/mL. The saturated solutions were diluted appropriately and analyzed by HPLC.
Solubility: Solubility of form IIC in various media was determined at ambient conditions by equilibrating aliquots of the drug powder with the solvents on a shaking bed for 24 hours. Samples were spun and the supernatant was carefully separated and analyzed by HPLC at the 24-hour timepoint using a stability-indicating method. […] Some variability may occur between lots of a particular sample.
as §1, with “Solubility” for “The solubility”, “IIIB” for “IA”, “medium” for “solvents”, “μL,” for “μL”, “mg/ml.” for “mg/mL.”

[2] = Dynamic Vapor Sorption (DVS), step isothermal study; conditions: 25° C.; for release of adsorbed water in the desorption stage: 95% to 5% RH; for moisture picked up at 95% relative humidity (RH): adsorption 5% to 95% RH; for weight gain from 5% to 95% relative humidity: step isothermic study (DVS)
Protocol: (§2) Dynamic Vapor Sorption (DVS): A step isothermal study (25° C.) was conducted on a representative sample of form IA using a VTI SGA 100 Symmetric Vapor Sorption Analyzer. An aliquot of approximately 10 mg was weighed in an open platinum dish and exposed to different levels of humidity at 25° C. Relative humidity (RH) steps were from 5% to 95% (adsorption) and from 95% to 5% in increments of 5% RH (desorption). The equilibration criterion was 0.0100 wt % change in 5 min, with a max equilibration time of 180 min. The sample picked up ˜8 wt % moisture at 95% relative humidity (RH).
as §2, with “a” for “a representative”, “form IIA” for “form IA”, “The material” for “The sample”, “up ˜11” for “up ˜8”
as §2, with “a” for “a representative”, “form IIC” for “form IA”, “The material” for “The sample”, “up ˜4” for “up ˜8”
Water Vapor Sorption analysis: Vapor Sorption analysis of a sample of form IIIB was done using a SGA-100 Vapor Sorption Analyzer (VTI, Hialeah, Fla.). A sample with weight of approximately 7-12 mg was measured isothermally at 25° C. Data was collected by Isotherm software and analyzed by Microsoft Excel with a VTI macro (VTI, Hialeah, Fla.). The sample gained about 4.6% in weight from 5 to 95% RH (25° C.).

[3] = Stability analysis (chemical stability by HPLC, physical stability by XRPD); conditions: for chemically and physically stable for at least about / chemically and physically stable for at least about (e.g. value): various storage conditions, including 40° C./75% RH (e.g., open container)
Text: In some embodiments, less than 25% of the form of Compound 1 decomposes, in some embodiments, less than about 20%, less than about 15%, less than about 10%, less than about 5%, less than about 3%, less than about 1%, less than about 0.5% of the form of Compound 1 decomposes under the conditions specified. In some embodiments, no detectable amount of the form of Compound 1 decomposes.
In some embodiments, less than 25% of the form of Compound 1 changes into one or more different physical forms when subjected to specified conditions, In some embodiments, less than about 20%, less than about 15%, less than about 10%, less than about 5%, less than about 3%, less than about 1%, less than about 0.5% of the form of Compound 1 changes into one or more different physical forms of Compound 1 when subjected to specified conditions. In some embodiments, no detectable amount of the form of Compound 1 changes into one or more different physical forms of Compound 1.

[4] = aqueous solution, pH of about 1.6

CCNC(=O)Nc1nc2cc(-c3cncc(F)c3)cc(-c3ncccn3)c2[nH]1.CCS(=O)(=O)O [Form IIA, 1-ethyl-3-(5-(5-fluoropyridin-3-yl)-7-(pyrimidin-2-yl)-1H-benzo[d]imidazol-2-yl)urea•monoesylate]
solubility [1, 4]: > 150 mg/mL
release of adsorbed water in the desorption stage ([2]; DVS): Not all of the adsorbed water was released
moisture picked up at 95% relative humidity (RH) ([2]; DVS): ~11 wt %
weight gain from 5% to 95% relative humidity [2]: about 10%
change of solid form on storage ([3]; 40° C./75% RH for about 24 hours or for about 2 weeks): converted to form IIB

CCNC(=O)Nc1nc2cc(-c3cncc(F)c3)cc(-c3ncccn3)c2[nH]1.CCS(=O)(=O)O [Form IIB, 1-ethyl-3-(5-(5-fluoropyridin-3-yl)-7-(pyrimidin-2-yl)-1H-benzo[d]imidazol-2-yl)urea•monoesylate]
solubility [1, 4]: > 150 mg/mL

CCNC(=O)Nc1nc2cc(-c3cncc(F)c3)cc(-c3ncccn3)c2[nH]1.CCS(=O)(=O)O [Form IIC, 1-ethyl-3-(5-(5-fluoropyridin-3-yl)-7-(pyrimidin-2-yl)-1H-benzo[d]imidazol-2-yl)urea•monoesylate]
Solubility, Actual Conc ([1]; 0.1N HCl, pH 1.10, target 100 mg/ml): 105 mg/mL
Solubility, Actual Conc ([1]; 0.5% Methylcellulose (MC)/0.5% Sodium Lauryl Sulfate (SLS), pH 1.58, target 100 mg/ml): 94.8 mg/mL
Solubility, Actual Conc ([1]; 0.9% Sodium Chloride, target 100 mg/ml): 33.6 mg/mL
Solubility, Actual Conc ([1]; 1% Deoxycholic sodium salt (DOSS), pH 1.71, target 150 mg/ml): 125 mg/mL
Solubility, Actual Conc ([1]; 1% Docusate, pH 1.58, target 150 mg/ml): 159 mg/mL
Solubility, Actual Conc ([1]; 1% Pluronic F68, pH 1.57, target 150 mg/ml): 155 mg/mL
Solubility, Actual Conc ([1]; 1% Pluronic F108, pH 1.58, target 150 mg/ml): 159 mg/mL
Solubility, Actual Conc ([1]; 1% SLS, pH 1.56, target 150 mg/ml): 126 mg/mL
Solubility, Actual Conc ([1]; 1% Tween 80, pH 1.60, target 150 mg/ml): 130 mg/mL
Solubility, Actual Conc ([1]; 4% Glycerol, pH 1.59, target 150 mg/ml): 162 mg/mL
Solubility, Actual Conc ([1]; 10% Cremophor, pH 1.64, target 150 mg/ml): 137 mg/mL
Solubility, Actual Conc ([1]; 10% Polyvinyl pyrrolidone (PVP) K30, pH 1.70, target 150 mg/ml): 152 mg/mL
Solubility, Actual Conc ([1]; 10% Solutol, pH 1.61, target 150 mg/ml): 170 mg/mL
Solubility, Actual Conc ([1]; 10% Tween 80, pH 1.64, target 150 mg/ml): 144 mg/mL
Solubility, Actual Conc ([1]; 10% Vitamin E TPGS, pH 1.58, target 150 mg/ml): 138 mg/mL
Solubility in 0.05M Buffers, Actual Conc ([1]; Potassium chloride hydrochloric acid, pH 1, experimental pH 1.01): 113 mg/mL
Solubility in 0.05M Buffers, Actual Conc ([1]; Potassium phosphate monobasic-sodium hydroxide, pH 7): 48.2 mg/mL
Solubility in 0.05M Buffers, Actual Conc ([1]; Potassium phosphate monobasic-sodium hydroxide, pH 9, experimental pH 1.75): 67.0 mg/mL
Solubility, Actual Conc ([1]; Tetraglucol:Water (1:1), pH 2.08, target 50 mg/ml): 29.6 mg/mL
Solubility, Actual Conc ([1]; Water, pH 1.60, target 150 mg/ml): 152 mg/mL
solubility [1, 4]: > 150 mg/mL
Solubility, Actual Conc ([1]; pH 7 Tris Buffer, target 100 mg/ml): 30.0 mg/mL
hydrate formation ([2]; DVS, 5% to 95% RH): did not form a hydrate
release of adsorbed water in the desorption stage ([2]; DVS): All adsorbed water was released
moisture picked up at 95% relative humidity (RH) ([2]; DVS): ~4 wt %
chemically and physically stable for at least about [3]: at least 2 weeks
chemically and physically stable for at least about (e.g. value) [3]: at least 6 months

CCNC(=O)Nc1nc2cc(-c3cncc(F)c3)cc(-c3ncccn3)c2[nH]1.CCS(=O)(=O)O [Form IID, 1-ethyl-3-(5-(5-fluoropyridin-3-yl)-7-(pyrimidin-2-yl)-1H-benzo[d]imidazol-2-yl)urea•monoesylate]
solubility [1, 4]: > 150 mg/mL

CCNC(=O)Nc1nc2cc(-c3cncc(F)c3)cc(-c3ncccn3)c2[nH]1.CS(=O)(=O)O [Form IIIB, 1-ethyl-3-(5-(5-fluoropyridin-3-yl)-7-(pyrimidin-2-yl)-1H-benzo[d]imidazol-2-yl)urea•monomesylate]
Solubility, Total Conc ([1]; Captisol, 20%): 3.81 mg/mL
Solubility, Total Conc ([1]; Captisol, 30%, pH 7): 0.634 mg/mL
Solubility, Total Conc ([1]; Ethanol): 0.439 mg/mL
Solubility, Total Conc ([1]; HCl, 0.1N): 12.2 mg/mL
Solubility, Total Conc ([1]; Miglyol810): 0.0219 mg/mL
Solubility, Total Conc ([1]; Octanol): 0.0584 mg/mL
Solubility, Total Conc ([1]; PEG400): 0.729 mg/mL
Solubility, Total Conc ([1]; PluronicF108, 1%): >12.0 mg/mL
Solubility, Total Conc ([1]; PropyleneGlycol): 5.74 mg/mL
Solubility, Total Conc ([1]; SGF): >12.0 mg/mL
Solubility, Total Conc ([1]; SIF): 0.0284 mg/mL
Solubility, Total Conc ([1]; SodiumLaurylSulfate, 1%): 0.623 mg/mL
Solubility, Total Conc ([1]; TrisBuffer, pH 7): 0.0276 mg/mL
Solubility, Total Conc ([1]; Vitamin E TPGS, 10%, 1% HPMC): >12.0 mg/mL
Solubility, Total Conc ([1]; Vitamin E TPGS, 10%): 11.5 mg/mL
Solubility, Total Conc ([1]; Water): >12.0 mg/mL
solubility ([1]; at pH of about 4.4): > 12 mg/mL
solubility ([1]; in simulated gastric fluid (SGF)): > 12 mg/mL
weight gain from 5% to 95% relative humidity [2]: about 4.6%
chemically and physically stable for at least about [3]: at least 2 weeks
chemically and physically stable for at least about (e.g. value) [3]: at least 1 months

CCNC(=O)Nc1nc2cc(-c3cncc(F)c3)cc(-c3ncccn3)c2[nH]1.CS(=O)(=O)O [crystalline1-ethyl-3-(5-(5-fluoropyridin-3-yl)-7-(pyrimidin-] [1-ethyl-3-(5-(5-fluoropyridin-3-yl)-7-(pyrimidin-2-yl)-1H-benzo[d]imidazol-2-yl)urea.monomesylate]
solubility ([1]; at pH of about 4.4): greater than 12 mg/ml
weight gain from 5% to 95% relative humidity [2]: 4.6%
remains chemically stable for at least ([3]; 40° C./75% relative humidity): at least 1 months
remains in substantially the same physical form for at least ([3]; 40° C./75% relative humidity): at least 1 months

CCNC(=O)Nc1nc2cc(-c3cncc(F)c3)cc(-c3ncccn3)c2[nH]1.CCS(=O)(=O)O [crystalline 1-ethyl-3-(5-(5-fluoropyridin-3-yl)-7-(pyrimidin] [1-ethyl-3-(5-(5-fluoropyridin-3-yl)-7-(pyrimidin-2-yl)-1H-benzo[d]imidazol-2-yl)urea.monoesylate]
solubility [1, 4]: greater than 150 mg/ml
remains chemically stable for at least about ([3]; 40° C./75% relative humidity): at least 2 weeks
remains in substantially the same physical form for at least ([3]; 40° C./75% relative humidity): at least 6 months
remains in substantially the same physical form for at least about ([3]; 40° C./75% relative humidity): at least 2 weeks

— patent US8217172B2, “Solid forms of 1-ethyl-3-(5-(5-fluoropyridin-3-yl)-7-(pyrimidin-2-yl)-1H-benzo[d]imidazol-2-yl)urea” (Vertex Pharmaceuticals Incorporated, priority 2007, dated 2012)
